Test results as given in patent publication US11999727B2 (Tango Therapeutics, Inc., priority 2020, dated 2024).

Experiments:
[1] = target: T1, PRMT5 (Homo sapiens, UniProt O14744); experiment: PRMT5 biochemical IC50 assay with SAM as cofactor; settings: PRMT5, SAM as cofactor; read-out: SAM IC50
T1 construct: purchased Viva (custom protein)

[2] = target: T1, PRMT5; experiment: PRMT5 biochemical IC50 assay with no cofactor; settings: PRMT5, no cofactor; read-out: No Cofactor/rel IC50
Source text: Table 1 indicates IC50 values (μM) against PRMT5 for exemplary compounds in the presence of SAM as cofactor, with no cofactor, and with MTA as cofactor, respectively (columns 4-6). […] Ki values can be calculated from the IC50 values as described in the Examples section. As detailed in the Examples section, for the assay performed in the presence of SAM, IC50=Ki×1.5 (Ki=IC50/1.5).

[3] = target: T1, PRMT5; experiment: PRMT5 biochemical IC50 assay with MTA as cofactor; settings: PRMT5, MTA as cofactor; read-out: MTA IC50
[4] = test system: HAP1 MTAP-intact cell line; experiment: SDMA in-cell western assay, HAP1 MTAP-intact; assay type: cell-based; settings: Homo sapiens, HAP1, SDMA in-cell western, HAP1 MTAP-intact; read-out: MTAP HAP1 intact IC50
How it was run: (§1)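 Readout: in-cell western detection of SDMA. Cells: HAP1 expressing endogenous MTAP and an MTAP-null HAP1 counterpart. Output: IC50.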

[5] = test system: HAP1 MTAP-deleted cell line; experiment: SDMA in-cell western assay, HAP1 MTAP-deleted; assay type: cell-based; settings: for IC50: Homo sapiens, HAP1, SDMA in-cell western, HAP1 MTAP-deleted; for MTAP intact/deleted ratio: IC50 ratio HAP1 MTAP-intact / HAP1 MTAP-deleted, SDMA in-cell western
How it was run: as §1

[6] = test system: HAP1 MTAP-deleted cell line; experiment: Viability assay, MTAP-deleted cell line; assay type: cell-based; settings: Homo sapiens, read-out: HAP1 MTAP deleted viability
Source text: Table 1 additionally indicates IC50 values in a viability assay for the MTAP-deleted cell line (column 10), indicating the effect of treatment with compound on cell survival.

[7] = read-out: HAP 1 MTAP deleted IC50
[8] = HAP1, viability IC50, MTAP-deleted cell line
[9] = read-out: HAP1 MTAP deleted IC50
[10] = HAP1, viability assay, HAP1 MTAP-deleted

T1 sequence (O14744 whole entry): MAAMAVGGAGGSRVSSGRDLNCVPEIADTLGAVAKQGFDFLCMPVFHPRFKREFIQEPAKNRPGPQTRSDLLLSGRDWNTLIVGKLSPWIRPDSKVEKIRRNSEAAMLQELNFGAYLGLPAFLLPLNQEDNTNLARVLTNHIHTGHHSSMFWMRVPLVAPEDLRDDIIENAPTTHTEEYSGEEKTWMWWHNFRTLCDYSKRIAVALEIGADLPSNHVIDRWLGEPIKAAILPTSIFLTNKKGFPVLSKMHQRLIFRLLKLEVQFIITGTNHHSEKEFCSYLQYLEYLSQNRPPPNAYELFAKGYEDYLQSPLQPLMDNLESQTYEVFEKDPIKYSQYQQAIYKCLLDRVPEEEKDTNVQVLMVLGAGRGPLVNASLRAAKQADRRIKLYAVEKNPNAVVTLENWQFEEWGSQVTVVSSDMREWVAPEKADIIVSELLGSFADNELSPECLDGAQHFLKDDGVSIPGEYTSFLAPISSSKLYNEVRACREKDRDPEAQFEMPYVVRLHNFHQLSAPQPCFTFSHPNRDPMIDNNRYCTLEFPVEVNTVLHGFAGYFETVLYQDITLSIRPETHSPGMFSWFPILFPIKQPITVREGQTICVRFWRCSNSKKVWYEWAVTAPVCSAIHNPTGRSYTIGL
T1 sequence (Q9BQA1 whole entry partner): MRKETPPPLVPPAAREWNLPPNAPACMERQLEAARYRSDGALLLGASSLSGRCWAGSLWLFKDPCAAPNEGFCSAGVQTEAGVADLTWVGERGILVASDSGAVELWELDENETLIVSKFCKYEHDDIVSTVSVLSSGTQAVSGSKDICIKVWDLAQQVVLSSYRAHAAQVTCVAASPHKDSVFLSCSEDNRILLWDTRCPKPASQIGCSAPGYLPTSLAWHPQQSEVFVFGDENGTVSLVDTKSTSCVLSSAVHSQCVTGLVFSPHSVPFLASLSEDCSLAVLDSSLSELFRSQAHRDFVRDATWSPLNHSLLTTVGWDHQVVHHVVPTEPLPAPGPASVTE

SMILES	IC50 [1] [nM]	IC50 [2] [nM]	IC50 [3] [nM]	IC50 [4] [nM]	IC50 [5, 7] [nM]	MTAP intact/deleted ratio [5]	IC50 [6, 8] [nM]	IC50 [5, 9] [nM]	IC50 [6, 10] [nM]
Cc1cc(NC(=O)C(=O)N2C[C@H](C)CC[C@H]2c2cccc3[nH]ncc23)cnc1N (racemic) [Compound 690, rac-N-(6-amino-5-methyl-3-pyridyl)-2-[(2S,5R)-2-(1H-indazol-4-yl)-5-methyl-1-piperidyl]-2-oxo-acetamide]	50 to 500	50 to 500	< 50	> 1000	100 to 1000	A (an IC50 ratio greater than or equal to 10 fold)	1000 to 10000		
CNS(=O)(=O)c1cccc([C@@H]2CC[C@@H](C)CN2C(=O)C(=O)Nc2cnc(N)c(C)c2)c1 (racemic) [Compound 691, N-(6-amino-5-methyl-3-pyridyl)-2-[(2S,5R)-5-methyl-2-[3-(methylsulfamoyl)phenyl]-1-piperidyl]-2-oxo-acetamide]	50 to 500	50 to 500	< 50	> 1000	100 to 1000	A (an IC50 ratio greater than or equal to 10 fold)	1000 to 10000		
Cc1cc(NC(=O)C(=O)N2C[C@H](C)CC[C@H]2C2CC3(CCC3)C2)cnc1N (racemic) [Compound 692, N-(6-amino-5-methylpyridin-3-yl)-2-(5-methyl-2-(spiro[3.3]heptan-2-yl)piperidin-1-yl)-2-oxoacetamide]	> 500	> 500	50 to 500	> 1000	> 1000	C (an IC50 ratio of less than 3 fold)	> 10000		
CCc1cc(NC(=O)C(=O)N2C[C@@H](C)CC[C@@H]2c2ccc(F)cc2)cnc1N (racemic) [Compound 710, N-(6-amino-5-ethylpyridin-3-yl)-2-(2-(4-fluorophenyl)-5-methylpiperidin-1-yl)-2-oxoacetamide]	50 to 500	< 50	< 50	> 1000		A (an IC50 ratio greater than or equal to 10 fold)		< 100	< 1000
[H][C@@]1([C@]2([H])C[C@@]3(C[C@H](O)C3)C2)CC[C@@H](C)CN1C(=O)C(=O)Nc1cnc(N)c(C)c1 (mixture of isomers) [Compound 711]	> 500	> 500	50 to 500	> 1000		B (an IC50 ratio greater than or equal to 3 fold but lower than 10 fold)		> 1000	> 10000
Cc1cc(NC(=O)C(=O)N2C[C@H](C)CC[C@H]2c2cccc3c2CC(=O)N3)cnc1N (racemic) [Compound 714, N-(6-Amino-5-methyl-3-pyridyl)-2-[(2S,5R)-5-methyl-2-(2-oxoindolin-4-yl)-1-piperidyl]-2-oxo-acetamide]	50 to 500	50 to 500	< 50	> 1000		A (an IC50 ratio greater than or equal to 10 fold)		100 to 1000	1000 to 10000
Cc1cc(NC(=O)C(=O)N2C[C@H](C)CC[C@H]2c2ccn(-c3ccn[nH]3)n2)cnc1N (racemic) [Compound 715, 2-(2-(1′H-[1,3′-bipyrazol]-3-yl)-5-methylpiperidin-1-yl)-N-(6-amino-5-methylpyridin-3-yl)-2-oxoacetamide]	> 500	50 to 500	50 to 500	> 1000		A (an IC50 ratio greater than or equal to 10 fold)		< 100	1000 to 10000
Cc1cc(NC(=O)C(=O)N2C[C@H](C)CC[C@H]2c2ccc3ncsc3c2)cnc1N (racemic) [Compound 716, N-(6-amino-5-methyl-3-pyridyl)-2-[(2S,5R)-2-(1,3-benzothiazol-6-yl)-5-methyl-1-piperidyl]-2-oxo-acetamide]	50 to 500	50 to 500	< 50	> 1000		A (an IC50 ratio greater than or equal to 10 fold)		< 100	< 1000
CC(=O)N1CCC([C@@H]2CC[C@@H](C)CN2C(=O)C(=O)Nc2cnc(N)c(C)c2)CC1 (racemic) [Compound 737, 2-[(2R,5S)-2-(1-acetyl-4-piperidyl)-5-methyl-1-piperidyl]-N-(6-amino-5-methyl-3-pyridyl)-2-oxo-acetamide]	> 500	50 to 500	50 to 500	> 1000		B (an IC50 ratio greater than or equal to 3 fold but lower than 10 fold)		> 1000	> 10000
CCOc1ncc(NC(=O)C(=O)N2C[C@@H](C)CC[C@@H]2c2ccccc2)cc1C(N)=O (racemic) [Compound 738]	50 to 500	50 to 500	50 to 500	> 1000		B (an IC50 ratio greater than or equal to 3 fold but lower than 10 fold)		> 1000	> 10000
Cc1cc(NC(=O)C(=O)N2C[C@H](C)CC[C@H]2c2cc3[nH]ncc3s2)cnc1N (racemic) [Compound 743, N-(6-amino-5-methylpyridin-3-yl)-2-(5-methyl-2-(1H-thieno[3,2-c]pyrazol-5-yl)piperidin-1-yl)-2-oxoacetamide]	50 to 500	50 to 500	50 to 500	100 to 1000		A (an IC50 ratio greater than or equal to 10 fold)		< 100	< 1000
Cc1cc(NC(=O)C(=O)N2C[C@H](C)CC[C@H]2C2CCCNC2)cnc1N (mixture of isomers) [Compound 744, N-(6-amino-5-methyl-3-pyridyl)-2-[(2R,5S)-5-methyl-2-(3-piperidyl)-1-piperidyl]-2-oxo-acetamide]	> 500	> 500	50 to 500	> 1000		C (an IC50 ratio of less than 3 fold)		> 1000	> 10000
CC(=O)N[C@H]1CCN(C(=O)C(=O)Nc2cncc(C(N)=O)c2)[C@@H](c2ccccc2)C1 (racemic) [Compound 745, 5-[[2-[(2R,4S)-4-acetamido-2-phenyl-1-piperidyl]-2-oxo-acetyl]amino]pyridine-3-carboxamide]	> 500	> 500	50 to 500	> 1000		C (an IC50 ratio of less than 3 fold)		> 1000	> 10000
CCc1ncc(NC(=O)C(=O)N2C[C@@H](C)CC[C@@H]2c2ccccc2)cc1C(N)=O (racemic) [Compound 747, 2-Ethyl-5-[[2-[(2S,5R)-5-methyl-2-phenyl-1-piperidyl]-2-oxo-acetyl]amino]pyridine-3-carboxamide]	50 to 500	50 to 500	50 to 500	> 1000		B (an IC50 ratio greater than or equal to 3 fold but lower than 10 fold)		> 1000	> 10000
CC(=O)N1CCCC([C@@H]2CC[C@@H](C)CN2C(=O)C(=O)Nc2cnc(N)c(C)c2)C1 (mixture of isomers) [Compound 757, rac-2-[(2R,5S)-2-(1-acetyl-3-piperidyl)-5-methyl-1-piperidyl]-N-(6-amino-5-methyl-3-pyridyl)-2-oxo-acetamide]	50 to 500	50 to 500	50 to 500	> 1000		B (an IC50 ratio greater than or equal to 3 fold but lower than 10 fold)		100 to 1000	> 10000
COc1ncc(NC(=O)C(=O)N2C[C@@H](C)CC[C@@H]2c2ccc3c(c2)C(=O)NC3)cc1C(N)=O (racemic) [Compound 759, 2-methoxy-5-[[2-[(2S,5R)-5-methyl-2-(3-oxoisoindolin-5-yl)-1-piperidyl]-2-oxo-acetyl]amino]pyridine-3-carboxamide]	50 to 500	50 to 500	< 50	> 1000		A (an IC50 ratio greater than or equal to 10 fold)		100 to 1000	1000 to 10000
Cc1cc(NC(=O)C(=O)N2C[C@H](C)CC[C@H]2C2CC3(CC(N)C3)C2)cnc1N (mixture of isomers) [Compound 773, N-(6-amino-5-methylpyridin-3-yl)-2-(2-(6-aminospiro[3.3]heptan-2-yl)-5-methylpiperidin-1-yl)-2-oxoacetamide]	50 to 500	50 to 500	50 to 500	> 1000		B (an IC50 ratio greater than or equal to 3 fold but lower than 10 fold)		100 to 1000	1000 to 10000
